Experimental data taken from ChEMBL document CHEMBL1125640.

Assay: Hill coefficient value of the compound

Structure (SMILES)	Hill coefficient
COC(=O)C1C2CC[C@H](C[C@H]1OC(=O)c1ccccc1)N2C (stereo in doubt; 4)	0.92
COC(=O)[C@@H]1[C@@H](OC(=O)c2ccccc2)CC2CC[C@H]1N2C	0.95
COC(=O)[C@@H]1[C@H]2CCC(C[C@H]1OC(=O)c1ccccc1)N2C	1.19
COC(=O)[C@H]1[C@@H](OC(=O)c2ccccc2)C[C@@H]2CC[C@H]1N2C (stereo in doubt; 2)	0.96
COC(=O)[C@H]1[C@@H](OC(=O)c2ccccc2)C[C@@H]2CC[C@H]1N2C (stereo in doubt; 1)	0.91
COC(=O)[C@H]1[C@@H](OC(=O)c2ccccc2)CC2CC[C@H]1N2C	2.6
COC(=O)[C@H]1[C@H]2CCC(C[C@H]1OC(=O)c1ccccc1)N2C	1.3
COC(=O)C1C2CC[C@H](C[C@H]1OC(=O)c1ccccc1)N2C (stereo in doubt; 3)	2.81
